Earlier results in patent US4239778A, “Azaprostanoic acid analogs and their use as inhibitors of platelet aggregation” (priority 1978, dated 1980).
“Also recorded” adds a separate entry of the source. Read-outs that look alike come from different tables or passages of the source.

Experiments:
Conditions in all cases: cited from earlier work
[1] = tested on: platelet aggregation
[2] = tested on: PGE2
[3] = tested on: cyclooxygenase
[4] = tested on: thromboxane synthetase
[5] = tested on: prostacyclin synthetase

Question: What does the source list for `CCCCCC/C=C/C1C2CC(N=N2)C1C/C=C\CCCC(=O)O` (stereo not shown) [azo prostanoic acid analog]?
Answer: effect on platelet aggregation (in words) [1]: inhibitor of platelet aggregation induced by PGH2, arachidonic acid, or collagen, and of the second wave of ADP or epinephrine-induced aggregation; effect on platelet aggregation (in words) ([1]; listed as azo analog): suppressed the attendant aggregation induced by arachidonate in a parallel, concentration-dependent fashion; PGE2 formation (in words) [2]: increase in PGE2; inhibition of prostaglandin biosynthesis / cyclooxygenase (in words) [3]: cyclooxygenase enzyme was not affected; inhibition of thromboxane synthetase (in words) [4]: potent inhibitor of thromboxane synthetase; inhibition of thromboxane synthetase (in words) ([4]; listed as azo analog): competitive inhibitor of PGH2 binding to the thromboxane synthetase enzyme; also recorded: selectively inhibit thromboxane synthetase in a concentration dependent fashion; inhibition of prostacyclin synthetase (in words) [5]: inhibitory activity may also extend to prostacyclin synthetase
